Activity calls are given as the source filed them. The rule behind the calls is not given here.
Tests used:
[1] = molecular target: 5-hydroxytryptamine receptor 2B (Homo sapiens, UniProt P41595); assay: Inhibition of 5-HT2BR (unknown origin)
[2] = molecular target: Voltage-gated inwardly rectifying potassium channel KCNH2 (Homo sapiens, UniProt Q12809); assay: Inhibition of hERG stably expressed in HEK293 cells by patch-clamp method; assay type: toxicity, cell-based
[3] = Metabolic stability in mouse liver microsomes assessed as intrinsic clearance measured per mg protein at 10 uM measured up to 60 mins in presence of NADPH by LC-MS/MS analysis; assay type: ADME, Microsome; conditions: read-out: CLH
Mus musculus [4] = assay: Anti-constipation effect in mouse assessed as increase in fecal output at 3 to 10 mg/kg, po measured after 1 hr; assay type: functional, organism-based; conditions: dose 3-10 mg/kg
[5] = Permeability of compound assessed as compound recovery at 10 uM incubated for 4 hrs by PAMPA; assay type: ADME; conditions: read-out: Drug recovery
[6] = molecular target: T1, 5-hydroxytryptamine receptor 2C (Homo sapiens, UniProt P28335); assay: Inhibition of 5-HT2CR (unknown origin)
T1 sequence (P28335 whole entry): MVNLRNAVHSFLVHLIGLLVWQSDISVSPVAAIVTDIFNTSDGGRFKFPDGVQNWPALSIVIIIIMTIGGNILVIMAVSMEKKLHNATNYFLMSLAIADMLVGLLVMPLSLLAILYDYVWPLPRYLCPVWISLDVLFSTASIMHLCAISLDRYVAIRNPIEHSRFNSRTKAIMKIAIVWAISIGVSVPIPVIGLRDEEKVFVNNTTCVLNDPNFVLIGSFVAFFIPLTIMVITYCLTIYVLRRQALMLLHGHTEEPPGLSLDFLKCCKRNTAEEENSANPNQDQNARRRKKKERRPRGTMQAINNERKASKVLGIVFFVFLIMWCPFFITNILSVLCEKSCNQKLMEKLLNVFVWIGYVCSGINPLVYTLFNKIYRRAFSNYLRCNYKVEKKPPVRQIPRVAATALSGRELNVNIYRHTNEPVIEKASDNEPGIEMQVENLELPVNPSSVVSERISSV

[7] = Metabolic stability in human liver microsomes assessed as intrinsic clearance measured per mg protein at 10 uM measured up to 60 mins in presence of NADPH by LC-MS/MS analysis; assay type: ADME, Microsome; conditions: read-out: CLH
[8] = Metabolic stability in rat liver microsomes assessed as intrinsic clearance measured per mg protein at 10 uM measured up to 60 mins in presence of NADPH by LC-MS/MS analysis; assay type: ADME, Microsome; conditions: read-out: CLH
[9] = Drug excretion in fasted male Sprague-Dawley rat at 5 mg/kg, po measured for 24 hrs by LC-MS/MS analysis; assay type: ADME, organism-based; conditions: in vivo, read-out: Drug excretion
Mus musculus [10] = assay: Anti-constipation effect in mouse assessed as increase in fecal water content at 3 to 10 mg/kg, po measured after 1 hr; assay type: functional, organism-based; conditions: dose 3-10 mg/kg
[11] = Stability in SGF at pH 1.5 assessed as half life by LC-MS/MS analysis; assay type: physicochemical
[12] = Stability in SIF at pH 6.8 assessed as half life by LC-MS/MS analysis; assay type: physicochemical
[13] = molecular target: 5-hydroxytryptamine receptor 1B (Homo sapiens, UniProt P28222); assay: Inhibition of 5-HT1BR (unknown origin)
[14] = Metabolic stability in rat liver microsomes assessed as half life at 10 uM measured up to 60 mins in presence of NADPH by LC-MS/MS analysis; assay type: ADME, Microsome
[15] = molecular target: T2, 5-hydroxytryptamine receptor 4 (Homo sapiens, UniProt Q13639); assay: Displacement of [3H]-GR113808 from full-length human 5-HT4R stably expressed in HEK293 cell membrane by MicroBeta2 Reader analysis; assay type: cell membranes
[16] = molecular target: T3, 5-hydroxytryptamine receptor 1A (Homo sapiens, UniProt P08908); assay: Inhibition of 5-HT1AR (unknown origin)
T3 sequence (P08908 whole entry): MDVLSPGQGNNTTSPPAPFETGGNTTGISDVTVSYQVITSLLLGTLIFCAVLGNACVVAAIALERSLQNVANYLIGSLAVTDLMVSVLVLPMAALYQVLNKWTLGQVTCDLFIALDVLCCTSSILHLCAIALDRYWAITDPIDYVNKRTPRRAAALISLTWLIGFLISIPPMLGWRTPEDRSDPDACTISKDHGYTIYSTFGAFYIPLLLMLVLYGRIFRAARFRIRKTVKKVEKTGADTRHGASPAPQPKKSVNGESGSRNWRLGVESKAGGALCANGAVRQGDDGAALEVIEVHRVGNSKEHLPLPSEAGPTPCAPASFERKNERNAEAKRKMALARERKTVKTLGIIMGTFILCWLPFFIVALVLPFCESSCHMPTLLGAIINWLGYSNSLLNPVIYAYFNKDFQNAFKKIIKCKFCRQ

[17] = molecular target: 5-hydroxytryptamine receptor 2A (Homo sapiens, UniProt P28223); assay: Inhibition of 5-HT2AR (unknown origin)
[18] = molecular target: Serotonin 3 (5-HT3) receptor; assay: Inhibition of 5-HT3R (unknown origin); assay type: protein-complex assay, Homo sapiens
[19] = molecular target: T2, 5-hydroxytryptamine receptor 4; assay: Inhibition of 5-HT4R (unknown origin)
[20] = molecular target: 5-hydroxytryptamine receptor 6 (Homo sapiens, UniProt P50406); assay: Inhibition of 5-HT6R (unknown origin)
[21] = Cmax in fasted male C57BL/6J mouse at 10 mg/kg, po measured after 1 hr by LC-MS/MS analysis; assay type: ADME, organism-based; conditions: in vivo
Mus musculus [22] = assay: Anti-constipation effect in mouse assessed as decrease in bead expulsion time at 3 to 15 mg/kg, po pretreated with compound 1 hr prior to glass bead insertion into distal colon measured after regaining conscious; assay type: functional, organism-based; conditions: dose 3-15 mg/kg
[23] = Metabolic stability in mouse liver microsomes assessed as half life at 10 uM measured up to 60 mins in presence of NADPH by LC-MS/MS analysis; assay type: ADME, Microsome
[24] = Apparent permeability coefficient of compound at 10 uM incubated for 4 hrs by PAMPA; assay type: ADME
[25] = molecular target: 5-hydroxytryptamine receptor 5A (Homo sapiens, UniProt P47898); assay: Inhibition of 5-HT5R (unknown origin)
[26] = Drug excretion in feces of fasted male Sprague-Dawley rat at 5 mg/kg, po measured for 24 hrs by LC-MS/MS analysis; assay type: ADME, organism-based; conditions: faeces, read-out: Drug excretion
[27] = molecular target: 5-hydroxytryptamine receptor 7 (Homo sapiens, UniProt P34969); assay: Inhibition of 5-HT7R (unknown origin)
[28] = Stability in mouse plasma assessed as half life measured up to 120 mins by LC-MS/MS analysis; assay type: ADME, cell-free
[29] = Metabolic stability in human liver microsomes assessed as half life at 10 uM measured up to 60 mins in presence of NADPH by LC-MS/MS analysis; assay type: ADME, Microsome
Mus musculus [30] = assay: Induction of whole-gut transit in mouse assessed as decrease in time for carmine red dye excretion administered orally via gavage measured for every 5 mins; assay type: functional, organism-based; conditions: dose 3-15 mg/kg, route po
[31] = molecular target: T2, 5-hydroxytryptamine receptor 4; assay: Agonist activity at full-length human 5-HT4R stably expressed in HEK293 cells assessed as increase in intracellular cAMP level incubated for 30 mins under dark condition by reporter gene assay relative to control; assay type: functional, cell-based; conditions: filed as agonist
[32] = molecular target: T2, 5-hydroxytryptamine receptor 4; assay: Agonist activity at full-length human 5-HT4R stably expressed in HEK293 cells assessed as increase in intracellular cAMP level incubated for 30 mins under dark condition by reporter gene assay; assay type: functional, cell-based

T2 sequence (Q13639 whole entry): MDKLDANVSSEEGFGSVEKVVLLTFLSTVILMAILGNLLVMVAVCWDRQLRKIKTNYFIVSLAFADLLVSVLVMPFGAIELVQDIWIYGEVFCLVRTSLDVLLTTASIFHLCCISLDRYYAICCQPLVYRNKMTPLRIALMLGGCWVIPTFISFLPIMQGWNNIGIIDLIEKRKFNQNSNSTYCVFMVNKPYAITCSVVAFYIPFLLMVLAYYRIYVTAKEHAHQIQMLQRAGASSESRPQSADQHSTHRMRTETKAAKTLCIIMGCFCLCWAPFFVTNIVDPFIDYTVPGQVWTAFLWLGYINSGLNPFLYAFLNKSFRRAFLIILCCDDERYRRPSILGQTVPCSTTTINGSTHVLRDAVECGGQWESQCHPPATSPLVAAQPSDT
Sequence of 5-hydroxytryptamine receptor 6 (P50406 whole entry): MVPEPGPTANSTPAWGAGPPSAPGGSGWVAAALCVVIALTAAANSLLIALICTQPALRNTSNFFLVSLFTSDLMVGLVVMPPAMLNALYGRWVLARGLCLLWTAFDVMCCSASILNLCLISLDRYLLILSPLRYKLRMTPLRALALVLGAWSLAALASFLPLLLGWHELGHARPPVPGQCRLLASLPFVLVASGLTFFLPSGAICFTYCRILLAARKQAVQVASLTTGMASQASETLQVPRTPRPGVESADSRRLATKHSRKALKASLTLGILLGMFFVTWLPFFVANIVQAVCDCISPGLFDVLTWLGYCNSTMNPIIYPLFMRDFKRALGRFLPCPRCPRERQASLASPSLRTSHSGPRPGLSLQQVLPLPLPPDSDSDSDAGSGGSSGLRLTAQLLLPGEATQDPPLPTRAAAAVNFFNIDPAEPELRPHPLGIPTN
Sequence of 5-hydroxytryptamine receptor 5A (P47898 whole entry): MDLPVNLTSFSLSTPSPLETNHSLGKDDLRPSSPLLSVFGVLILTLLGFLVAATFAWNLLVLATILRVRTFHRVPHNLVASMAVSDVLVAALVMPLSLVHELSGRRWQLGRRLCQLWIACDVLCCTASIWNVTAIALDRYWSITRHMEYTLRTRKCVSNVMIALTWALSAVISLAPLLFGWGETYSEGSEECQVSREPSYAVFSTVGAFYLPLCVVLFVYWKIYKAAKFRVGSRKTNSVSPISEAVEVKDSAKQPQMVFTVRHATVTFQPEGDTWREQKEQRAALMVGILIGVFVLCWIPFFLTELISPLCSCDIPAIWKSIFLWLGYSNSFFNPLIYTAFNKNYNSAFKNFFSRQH
Sequence of 5-hydroxytryptamine receptor 2B (P41595 whole entry): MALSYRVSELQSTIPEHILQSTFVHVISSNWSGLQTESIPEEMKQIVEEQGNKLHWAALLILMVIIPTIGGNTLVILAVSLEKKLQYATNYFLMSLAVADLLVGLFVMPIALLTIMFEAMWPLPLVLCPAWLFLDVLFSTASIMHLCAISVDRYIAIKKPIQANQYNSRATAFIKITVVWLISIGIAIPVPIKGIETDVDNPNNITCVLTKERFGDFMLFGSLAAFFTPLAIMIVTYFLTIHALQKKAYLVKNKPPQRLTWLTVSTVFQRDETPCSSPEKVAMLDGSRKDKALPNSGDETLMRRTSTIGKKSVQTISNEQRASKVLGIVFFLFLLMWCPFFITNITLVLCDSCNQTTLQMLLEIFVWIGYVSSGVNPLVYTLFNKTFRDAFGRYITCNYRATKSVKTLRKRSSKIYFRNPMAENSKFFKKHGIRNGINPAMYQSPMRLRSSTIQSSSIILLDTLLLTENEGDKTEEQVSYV
Sequence of 5-hydroxytryptamine receptor 7 (P34969 whole entry): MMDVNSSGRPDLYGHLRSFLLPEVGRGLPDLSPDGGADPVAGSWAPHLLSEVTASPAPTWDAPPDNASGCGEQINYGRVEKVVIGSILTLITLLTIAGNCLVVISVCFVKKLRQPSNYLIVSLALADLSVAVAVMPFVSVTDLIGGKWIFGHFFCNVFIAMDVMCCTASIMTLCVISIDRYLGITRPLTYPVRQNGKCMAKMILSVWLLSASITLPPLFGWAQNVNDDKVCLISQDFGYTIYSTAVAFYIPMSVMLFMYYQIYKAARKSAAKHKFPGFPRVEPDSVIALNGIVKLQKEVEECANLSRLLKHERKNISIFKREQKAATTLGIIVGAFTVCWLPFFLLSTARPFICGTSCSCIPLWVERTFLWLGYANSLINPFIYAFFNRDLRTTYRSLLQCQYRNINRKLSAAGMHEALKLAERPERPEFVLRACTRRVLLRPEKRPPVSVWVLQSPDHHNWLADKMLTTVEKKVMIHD
Sequence of Voltage-gated inwardly rectifying potassium channel KCNH2 (Q12809 whole entry): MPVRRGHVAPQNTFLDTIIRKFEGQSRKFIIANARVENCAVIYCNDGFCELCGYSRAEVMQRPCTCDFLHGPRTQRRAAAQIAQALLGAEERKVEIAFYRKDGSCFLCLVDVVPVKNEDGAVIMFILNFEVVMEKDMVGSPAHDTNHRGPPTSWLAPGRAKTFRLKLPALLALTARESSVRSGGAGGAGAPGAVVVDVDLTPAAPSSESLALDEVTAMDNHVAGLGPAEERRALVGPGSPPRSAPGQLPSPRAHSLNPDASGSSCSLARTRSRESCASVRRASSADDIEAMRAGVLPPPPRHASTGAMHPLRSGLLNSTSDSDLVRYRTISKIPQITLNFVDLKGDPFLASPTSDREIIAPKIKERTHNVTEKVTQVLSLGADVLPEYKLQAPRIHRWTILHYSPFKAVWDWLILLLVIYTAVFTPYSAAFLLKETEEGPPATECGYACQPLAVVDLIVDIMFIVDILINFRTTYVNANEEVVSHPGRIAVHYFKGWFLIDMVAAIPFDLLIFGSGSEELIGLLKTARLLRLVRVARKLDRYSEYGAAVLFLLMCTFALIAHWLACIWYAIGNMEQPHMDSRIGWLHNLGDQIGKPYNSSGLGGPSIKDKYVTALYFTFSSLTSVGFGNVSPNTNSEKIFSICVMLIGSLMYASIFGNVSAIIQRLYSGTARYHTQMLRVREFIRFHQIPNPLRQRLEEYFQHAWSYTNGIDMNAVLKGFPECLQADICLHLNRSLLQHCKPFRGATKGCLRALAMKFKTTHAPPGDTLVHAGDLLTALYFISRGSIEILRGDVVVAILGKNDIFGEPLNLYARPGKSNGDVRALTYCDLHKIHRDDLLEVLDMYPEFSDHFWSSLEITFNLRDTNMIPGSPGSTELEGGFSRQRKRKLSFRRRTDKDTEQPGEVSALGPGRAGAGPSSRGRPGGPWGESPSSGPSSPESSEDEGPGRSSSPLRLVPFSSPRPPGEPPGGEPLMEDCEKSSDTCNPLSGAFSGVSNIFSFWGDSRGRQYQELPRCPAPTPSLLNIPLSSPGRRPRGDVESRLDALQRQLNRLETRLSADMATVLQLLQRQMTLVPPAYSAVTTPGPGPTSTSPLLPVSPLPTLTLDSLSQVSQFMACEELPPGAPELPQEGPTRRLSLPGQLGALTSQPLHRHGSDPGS
Sequence of 5-hydroxytryptamine receptor 2A (P28223 whole entry): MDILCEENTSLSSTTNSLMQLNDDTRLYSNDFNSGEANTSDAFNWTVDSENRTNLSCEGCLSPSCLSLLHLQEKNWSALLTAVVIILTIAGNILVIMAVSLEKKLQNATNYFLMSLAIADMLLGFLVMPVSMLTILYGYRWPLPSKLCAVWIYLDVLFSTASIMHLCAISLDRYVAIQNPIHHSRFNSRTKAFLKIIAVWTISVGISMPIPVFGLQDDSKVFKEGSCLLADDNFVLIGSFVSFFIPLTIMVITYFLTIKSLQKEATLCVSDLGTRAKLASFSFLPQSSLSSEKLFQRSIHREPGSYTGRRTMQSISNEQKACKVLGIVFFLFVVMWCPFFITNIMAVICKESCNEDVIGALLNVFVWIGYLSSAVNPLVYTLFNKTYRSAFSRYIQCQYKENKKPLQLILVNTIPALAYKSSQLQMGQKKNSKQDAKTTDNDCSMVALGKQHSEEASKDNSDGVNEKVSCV
Sequence of 5-hydroxytryptamine receptor 1B (P28222 whole entry): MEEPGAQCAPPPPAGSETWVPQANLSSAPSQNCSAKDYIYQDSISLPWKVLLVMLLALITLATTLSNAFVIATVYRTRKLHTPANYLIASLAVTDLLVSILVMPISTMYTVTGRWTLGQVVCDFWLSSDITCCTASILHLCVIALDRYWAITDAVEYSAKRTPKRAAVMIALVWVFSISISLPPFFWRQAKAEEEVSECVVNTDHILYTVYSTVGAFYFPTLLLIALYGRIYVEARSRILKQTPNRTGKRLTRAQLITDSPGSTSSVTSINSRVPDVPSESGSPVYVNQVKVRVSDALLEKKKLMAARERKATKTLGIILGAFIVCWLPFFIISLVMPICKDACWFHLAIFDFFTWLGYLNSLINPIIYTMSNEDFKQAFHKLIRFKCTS

IC50 [1]: > 1000 nM
microsomal CLint at 10 µM [3]: 3 µL/min/mg
recovery at 4 h, 10 µM [5]: 83.1%
IC50 [6]: > 10 µM
microsomal CLint at 10 µM [7]: 64.8 µL/min/mg
microsomal CLint at 10 µM [8]: 5 µL/min/mg
dose excreted at 24 h [9]: ~100%
half-life [11]: > 1440 min
half-life [12]: > 1440 min
IC50 [13]: > 10 µM
half-life at 10 µM [14]: 277 min
Ki [15]: 13.1 nM
IC50 [16]: > 10 µM
IC50 [17]: > 1000 nM
IC50 [18]: > 10 µM
IC50 [19]: 25.1 µM
IC50 [20]: > 1000 nM
Cmax [21]: 8.5 ng/mL
half-life at 10 µM [23]: 462 min
Papp at 4 h, 10 µM [24]: 3.1 ×10⁻⁶ cm/s
IC50 [25]: > 10 µM
dose excreted at 24 h [26]: ~100%
IC50 [27]: > 10 µM
half-life [28]: 184 min
half-life at 10 µM [29]: 21.4 min
Efficacy [31]: 99.6%
EC50 [32]: 0.41 nM
SMILES: Nc1c(Cl)cc(C(=O)NCC2CCN(CCCCCC(=O)NCCOCCOCCNC(=O)NCCCCNC(=O)NCCOCCOCCNC(=O)CCCCCN3CCC(CNC(=O)c4cc(Cl)c(N)c5c4OCC5)CC3)CC2)c2c1CCO2
IC50 [2]: > 100 µM
Activity (Mus musculus [4]): Active; Efficacy Comparable To Prucalopride Succinate At 10 Mg/Kg
Activity (Mus musculus [10]): Active; Efficacy Comparable To Prucalopride Succinate At 10 Mg/Kg
Activity (Mus musculus [22]): Active
Activity (Mus musculus [30]): Dose-dependent-effect; Superior To Prucalopride Succinate At 10 Mg/Kg
